Survival data for one molecule are collected here from ChEMBL document CHEMBL3045377, “An aphid repellent glycoside from Solanum laxum” (2000).

What all share (format): functional
In experiment [1] the test system is Schizaphis graminum. The experiment in a line: Feeding deterrence activity against Schizaphis graminum fed on artificial diet containing compound assessed as relative survival at 250 uM after 12 hr by non-choice assay (reference value: 100 +/-0%).
In experiment [2] the test system is Schizaphis graminum. Description: Feeding deterrence activity against Schizaphis graminum fed on artificial diet containing compound assessed as relative survival at 500 uM after 12 hr by non-choice assay (reference value: 100 +/-0%).
For experiment [3], the system named is Schizaphis graminum. The experiment in a line: Toxicity against Schizaphis graminum fed on artificial diet containing compound assessed as relative survival at 500 uM after 24 hr by non-choice assay (reference value: 100 +/-0%).
The subject of experiment [4] is Schizaphis graminum. Description: Toxicity against Schizaphis graminum fed on artificial diet containing compound assessed as relative survival at 100 uM after 24 hr by non-choice assay (reference value: 100 +/-0%).
In experiment [5] the test system is Schizaphis graminum. The experiment in a line: Toxicity against Schizaphis graminum fed on artificial diet containing compound assessed as relative survival at 250 uM after 24 hr by non-choice assay (reference value: 100 +/-0%).
Experiment [6] concerns Schizaphis graminum. Description: Feeding deterrence activity against Schizaphis graminum fed on artificial diet containing compound assessed as relative survival at 50 uM after 24 hr by non-choice assay (reference value: 100 +/-0%).
Experiment [7] has as its system Schizaphis graminum. Description: Feeding deterrence activity against Schizaphis graminum fed on artificial diet containing compound assessed as relative survival at 100 uM after 24 hr by non-choice assay (reference value: 100 +/-0%).
The subject of experiment [8] is Schizaphis graminum. Description: Feeding deterrence activity against Schizaphis graminum fed on artificial diet containing compound assessed as relative survival at 500 uM after 24 hr by non-choice assay (reference value: 100 +/-0%).
In experiment [9] the test system is Schizaphis graminum. Description: Toxicity against Schizaphis graminum fed on artificial diet containing compound assessed as relative survival at 50 uM after 24 hr by non-choice assay (reference value: 100 +/-0%).
Experiment [10] relates to Schizaphis graminum. Description: Feeding deterrence activity against Schizaphis graminum fed on artificial diet containing compound assessed as relative survival at 250 uM after 24 hr by non-choice assay (reference value: 100 +/-0%).
Experiment [11] relates to Schizaphis graminum. Description: Feeding deterrence activity against Schizaphis graminum fed on artificial diet containing compound assessed as relative survival at 100 uM after 12 hr by non-choice assay (reference value: 100 +/-0%).
Experiment [12] relates to Schizaphis graminum. The experiment in a line: Feeding deterrence activity against Schizaphis graminum fed on artificial diet containing compound assessed as relative survival at 50 uM after 12 hr by non-choice assay (reference value: 100 +/-0%).

Take `C[C@H]1CC[C@@]2(OC1)O[C@H]1[C@H](O)[C@H]3[C@@H]4CC=C5C[C@@H](O[C@@H]6O[C@H](CO)[C@H](O[C@@H]7O[C@H](CO)[C@@H](O)[C@H](O)[C@H]7O[C@@H]7O[C@H](CO)[C@@H](O)[C@H](O)[C@H]7O)[C@H](O)[C@H]6O[C@@H]6O[C@@H](C)[C@H](O)[C@@H](O)[C@H]6O)CC[C@]5(C)[C@H]4CC[C@]3(C)[C@H]1[C@@H]2C` [Luciamin]: the survival at 250 µM was 85% with Schizaphis graminum [1], 48% in the experiment on Schizaphis graminum [5] and 72% in the experiment with Schizaphis graminum [10]. Besides, the results for the survival at 500 µM with Schizaphis graminum [2], in the experiment with Schizaphis graminum [3] and in the experiment on Schizaphis graminum [8] were 70%, 40% and 76%, respectively. Also, the results for the survival at 100 µM in the experiment on Schizaphis graminum [4], in the experiment on Schizaphis graminum [7] and in the experiment with Schizaphis graminum [11] were 49%, 70% and 80%, respectively. In addition, the results for the survival at 50 µM with Schizaphis graminum [6], in the experiment on Schizaphis graminum [9] and in the experiment with Schizaphis graminum [12] were 64%, 47% and 93%, respectively.
